# Data: publication PMC3792051, “Polyenylpyrrole Derivatives Inhibit NLRP3 Inflammasome Activation and Inflammatory Mediator Expression by Reducing Reactive Oxygen Species Production and Mitogen-Activated Protein Kinase Activation” (PLoS ONE, 2013)
# Tests used:
# [1] = tested on: LPS-activated RAW 264.7 macrophages; assay: Intracellular ROS production (DCF fluorescence), LPS-induced; format: cell-based, murine; conditions: RAW 264.7, 30 min pretreatment; compound 1h 20 µM, NAC 10 mM
# Experimental: Intracellular ROS production was measured by detecting the fluorescence intensity of the 2’, 7’-dichlorofluorescein, the oxidation product of 2’, 7’-dichlorofluorescein diacetate (Molecular Probes, Eugene, OR). In one study, RAW 264.7 macrophages (5 × 10^5/ml; 0.1 ml) were incubated with vehicle, compound 1h (20 µM), or NAC (10 mM) for 30 min, then 2’, 7’-dichlorofluorescein diacetate (2 µM) was added for 30 min, then LPS was added for the indicated time. In another, J774A.1 macrophages (5 × 10^5/ml; 0.1 ml) were incubated with LPS (1 µg/ml) for 6 h, then vehicle, compound 1h (20 µM), or DPI (25 µM) was added for 30 min. 2’, 7’-dichlorofluorescein diacetate (2 µM) was then added for 30 min before incubation with ATP (5 mM) for the indicated time; while, in another, the order of addition of compound1h/DPI and LPS was reversed. The fluorescence intensity of 2’, 7’-dichlorofluorescein was detected at an excitation wavelength of 485 nm and an emission wavelength of 530 nm on a microplate absorbance reader (Bio-Rad Laboratories, Inc).
# To test whether compound 1h exerted its anti-inflammatory effect on LPS-activated cells by downregulation of ROS production, intracellular ROS production in LPS-activated RAW 264.7 macrophages was measured.
# Figure 5 Effect of compound 1h on ROS production and MAPK phosphorylation in LPS-activated macrophages. […]
# [2] = tested on: LPS-activated J774A.1 cells; assay: NLRP3 and proIL-1β expression by Western blot; format: cell-based, mouse; conditions: J774A.1, 1-40 µM 30 min before LPS 6 h
# Experimental: Cells were washed twice with ice-cold phosphate-buffered saline (PBS) and lysed on ice for 5 min with lysis buffer (20 mM Tris-HCl, pH 7.5, 150 mM NaCl, 1 mM Na 2EDTA, 1 mM EGTA, 1% Triton X-100, 2.5 mM sodium pyrophosphate, 1 mM beta-glycerophosphate, 1 mM Na 3VO4, 1 µg/ml of leupeptin, 1 mM PMSF, protease inhibitor cocktail). The lysate was then centrifuged at 12,000 x g at 4 °C for 10 min and the pellet discarded. […]
# Figure 4 Effect of compound 1h on NLRP3 inflammasome activation in LPS+ATP-activated J774A.1 macrophages. (A) J774A.1 macrophages (1 × 10^6/ml; 1 ml) or (B) peritoneal macrophages (1 × 10^5/ml; 1 ml) were incubated with 10-40 µM compound 1h or DMSO for 30 min, then LPS (1 µg/ml) was added and incubation continued for 5.5 h, then the cells were stimulated with ATP (5 mM) for an additional 30 min, then IL-1β in the culture medium was measured by ELISA (A, upper panel; B) and levels of active caspase-1 (p10) (A, lower panel) measured by Western blotting. […] In (E), J774A.1 macrophages (1 × 10^6/ml; 1 ml) were incubated for 30 min with DMSO or 1-40 µM compound 1h, then LPS (1 µg/ml) was added and incubation continued for 6 h, then expression of NLRP3 and proIL-1β was measured by Western blotting. […]
smiles,measurement,setting,value
O=c1cc(O)cc(/C=C/C=C/C=C/C=C/c2[nH]ccc2Cl)o1 [compound 1h],LPS-stimulated ROS production,[1],reduced LPS-stimulated ROS production
same,LPS-induced proIL-1β expression,[2],inhibited LPS-induced proIL-1β expression in a dose-dependent fashion
same,NLRP3 protein expression,[2],increased NLRP3 expression
